Our source for the EC50 values is patent publication US11472808B2, “Substituted pyrrolo[1,2-c]pyrimidines as hepatitis B antiviral agents” (Enanta Pharmaceuticals, Inc., priority 2019, dated 2022).

The assay deals with HBV. The experiment in a line: HepAD38 anti-HBV assay: reduction of viral product accumulation (virion DNA qPCR, HBsAg/HBeAg ELISA). Type of assay: cell-based. The note with it: Hepatitis B virus, 120 h; HepAD38 cells; concentration reducing viral product accumulation by 50% relative to no drug controls; harvest five days after compound addition; read-out: HepAD38 EC50. The method, then: Methods: HepAD38 cells are maintained as previously reported (Ladner et al, Antimicrob. Agents Chemother. 1997, […], 1715). Briefly, cells are passaged upon attaining confluency in DMEM/F12 media in the presence of 10% FBS, Penn/Strep, 250 μg/mL G418, and 1 μg/ml tetracycline. Novel compounds are screened by first washing cells three times with PBS to remove tetracycline, and plating in 96 well plates at 35,000 cells/well. Compounds dissolved in DMSO are then diluted 1:200 into wells containing cells. Five days after compound addition, material is harvested for analysis. For an extended 8 day analysis, cells are plated and treated as described above, but media and compound are refreshed on d2 and d5 post initial treatment.
On harvest day, virion DNA is obtained by lysing with Sidestep Lysis and Stabilization Buffer and then quantified via quantitative real time PCR. Commercially available ELISA kits are used to quantitate the viral proteins HBsAg (Alpco) or HbeAg (US Biological) by following the manufacturer's recommended protocol after diluting samples to match the linear range of their respective assays. Irrespective of readout, compound concentrations that reduce viral product accumulation in the cell lysates or supernatants by 50% relative to no drug controls (EC50) are reported; EC50 ranges are as follows: A<0.1 μM; B 0.1-0.4 μM; C>0.4 μM.
A general note: In qPCR the cycle at which signal appears reflects the starting amount.

As to `O=S(=O)(CCN1CCOCC1)N[C@H]1CC2=C(c3ccn(C(F)F)n3)[C@H](c3ccc(F)cc3Cl)N=C(c3nccs3)N2C1` [Example 56], the EC50 is 100 to 400 nM.

Regarding `OC/C=C/[C@]1(F)CC2=C(c3ccn(C(F)F)n3)[C@H](c3ccc(F)cc3Cl)N=C(c3nccs3)N2C1` [Example 174], the EC50 lay within 100 to 400 nM.

`O=S(=O)(N[C@H]1CC2=C(c3ccn(C(F)F)n3)[C@H](c3ccc(F)cc3Cl)N=C(c3nccs3)N2C1)N1C[C@H](O)[C@@H](O)C1` [Example 101]: the EC50 is less than 100 nM.

As to `C=CCNC[C@@]1(N)CC2=C(c3ccn(C(F)F)n3)[C@H](c3ccc(F)cc3Cl)N=C(c3nccs3)N2C1` [Example 149], the EC50 was more than 400 nM.

With `COC(=O)C1CCN(C(=O)N[C@H]2CC3=C(c4ccn(C(F)F)n4)[C@H](c4ccc(F)cc4Cl)N=C(c4nccs4)N3C2)CC1` [Example 211], the EC50 was in the range of 100 to 400 nM.

For `O=C(O)C1CCN(S(=O)(=O)N[C@H]2CC3=C(c4ccn(C(F)F)n4)[C@H](c4ccc(F)cc4Cl)N=C(c4nccs4)N3C2)CC1` [Example 90], the EC50 was less than 100 nM.

Take `C[C@H]1CN(S(=O)(=O)N[C@H]2CC3=C(c4ccn(C(F)F)n4)[C@H](c4ccc(F)cc4Cl)N=C(c4nccs4)N3C2)C[C@@H]1C` [Example 300]: the half-maximal effective concentration (EC50) was less than 100 nM.

With `COC(=O)CC1CCN(CCS(=O)(=O)N[C@H]2CC3=C(c4ccn(C(F)F)n4)[C@H](c4ccc(F)cc4Cl)N=C(c4nccs4)N3C2)CC1` [Example 61], the EC50 is less than 100 nM.

As for `O=S(=O)(NCCCc1ccccn1)N[C@H]1CC2=C(c3ccn(C(F)F)n3)[C@H](c3ccc(F)cc3Cl)N=C(c3nccs3)N2C1` [Example 350], the concentration for a half-maximal effect (EC50) is 100 to 400 nM.

As for `CC1(S(=O)(=O)N[C@H]2CC3=C(c4ccn(C(F)F)n4)[C@H](c4ccc(F)cc4Cl)N=C(c4nccs4)N3C2)CC1` [Example 405], the EC50 was less than 100 nM.

As to `C=CCOC[C@@]1(O)CC2=C(c3ccn(C(F)F)n3)[C@H](c3ccc(F)cc3Cl)N=C(c3nccs3)N2C1` (single isomer, unassigned) [Example 109], the EC50 was in the range of 100 to 400 nM.

Regarding `CC(=O)OCCCS(=O)(=O)N[C@H]1CC2=C(c3ccn(C(F)F)n3)[C@H](c3ccc(F)cc3Cl)N=C(c3nccs3)N2C1` [Example 310], the EC50 is less than 100 nM.

For the compound `O=S(=O)(Nc1ccc(-c2ccccn2)cc1)N[C@H]1CC2=C(c3ccn(C(F)F)n3)[C@H](c3ccc(F)cc3Cl)N=C(c3nccs3)N2C1` [Example 346], the EC50 was less than 100 nM.

On to `CCCCS(=O)(=O)N[C@H]1CC2=C(c3ccn(C(F)F)n3)[C@H](c3ccc(F)cc3Cl)N=C(c3nccs3)N2C1` [Example 319], for which the EC50 was less than 100 nM.

As to `COC(=O)Cc1cccc(S(=O)(=O)N[C@H]2CC3=C(c4ccn(C(F)F)n4)[C@H](c4ccc(F)cc4Cl)N=C(c4nccs4)N3C2)c1` [Example 31], the EC50 is less than 100 nM.

Regarding `O=S(=O)(N[C@H]1CC2=C(c3ccn(C(F)F)n3)[C@H](c3ccc(F)cc3Cl)N=C(c3nccs3)N2C1)[C@H]1CC[C@](O)(c2ccccn2)CC1` [Example 104], the EC50 is less than 100 nM.

Consider `O=S(=O)(CCN1CCCCC1)N[C@H]1CC2=C(c3ccn(C(F)F)n3)[C@H](c3ccc(F)cc3Cl)N=C(c3nccs3)N2C1` [Example 55], for which the EC50 lay in the range of 100 to 400 nM.

With `CCNC(=O)N[C@H]1CC2=C(c3ccn(C(F)F)n3)[C@H](c3ccc(F)cc3Cl)N=C(c3nccs3)N2C1` [Example 203], the EC50 was less than 100 nM.

As to `CS(=O)(=O)CCCS(=O)(=O)N[C@H]1CC2=C(c3ccn(C(F)F)n3)[C@H](c3ccc(F)cc3Cl)N=C(c3nccs3)N2C1` [Example 329], the 50% effective concentration (EC50) was less than 100 nM.

For `O=S(=O)(N[C@H]1CC2=C(c3ccn(C(F)F)n3)[C@H](c3ccc(F)cc3Cl)N=C(c3nccs3)N2C1)c1cccc(-c2ccccc2)n1` [Example 409], the EC50 is less than 100 nM.

Turning to `O=C(O)Cc1cccc(S(=O)(=O)N[C@H]2CC3=C(c4ccn(C(F)F)n4)[C@H](c4ccc(F)cc4Cl)N=C(c4nccs4)N3C2)c1` [Example 33], the EC50 fell in the range of 100 to 400 nM.

For the compound `CCOC(=O)C1CCN(S(=O)(=O)N[C@H]2CC3=C(c4ccn(C(F)F)n4)[C@H](c4ccc(F)cc4Cl)N=C(c4nccs4)N3C2)CC1` [Example 87], the EC50 is less than 100 nM.

Take `O=C(O)CCS(=O)(=O)N[C@H]1CC2=C(c3ccn(C(F)F)n3)[C@H](c3ccc(F)cc3Cl)N=C(c3nccs3)N2C1` [Example 10]: the EC50 is more than 400 nM.

Take `O=C(N[C@H]1CC2=C(c3ccn(C(F)F)n3)[C@H](c3ccc(F)cc3Cl)N=C(c3nccs3)N2C1)N1C[C@H](O)[C@@H](O)C1` [Example 230]: the EC50 was 100 to 400 nM.

In the case of `O=C(N[C@H]1CC2=C(c3ccn(C(F)F)n3)[C@H](c3ccc(F)cc3Cl)N=C(c3nccs3)N2C1)N1CCC[C@H](O)C1` [Example 229], the EC50 is 100 to 400 nM.

For `O=S(=O)(N[C@H]1CC2=C(c3ccn(C(F)F)n3)[C@H](c3ccc(F)cc3Cl)N=C(c3nccs3)N2C1)c1cccc(C2CC2)n1` [Example 408], the EC50 is less than 100 nM.

With `O=C(NCC(O)c1ccccn1)N[C@H]1CC2=C(c3ccn(C(F)F)n3)[C@H](c3ccc(F)cc3Cl)N=C(c3nccs3)N2C1` (some centres unmarked) [Example 218], the EC50 is more than 400 nM.

`CCC(=O)N[C@H]1CC2=C(c3ccn(C(F)F)n3)[C@H](c3ccc(F)cc3Cl)N=C(c3nccs3)N2C1` [Example 197]: the EC50 lay within 100 to 400 nM.

As for `O=S(=O)(N[C@H]1CC2=C(c3ccn(C(F)F)n3)[C@H](c3ccc(F)cc3Cl)N=C(c3nccs3)N2C1)N[C@@H](c1ccccn1)C1CC1` [Example 354], the EC50 was in the range of 100 to 400 nM.

With `COC(=O)c1ccccc1S(=O)(=O)NC[C@@]1(F)CC2=C(c3ccn(C(F)F)n3)[C@H](c3ccc(F)cc3Cl)N=C(c3nccs3)N2C1` [Example 188], the EC50 is more than 400 nM.

As to `O=S(=O)(NCC1(O)CC1)N[C@H]1CC2=C(c3ccn(C(F)F)n3)[C@H](c3ccc(F)cc3Cl)N=C(c3nccs3)N2C1` [Example 158], the EC50 was 100 to 400 nM.

With `O=C(O)c1ccc(S(=O)(=O)NCC2(F)CC3=C(c4ccn(C(F)F)n4)[C@H](c4ccc(F)cc4Cl)N=C(c4nccs4)N3C2)cc1` (some centres unmarked) [Example 192], the EC50 was more than 400 nM.

With `Fc1ccc([C@@H]2N=C(c3nccs3)N3C[C@@H](N4CCNCC4)CC3=C2c2ccn(C(F)F)n2)c(Cl)c1` [Example 45], the EC50 is more than 400 nM.

Take `CCOC(=O)C1CCN(CCS(=O)(=O)N[C@H]2CC3=C(c4ccn(C(F)F)n4)[C@H](c4ccc(F)cc4Cl)N=C(c4nccs4)N3C2)CC1` [Example 58]: the EC50 lay within 100 to 400 nM.

With `C=CCN(C[C@]1(O)CC2=C(c3ccn(C(F)F)n3)[C@H](c3ccc(F)cc3Cl)N=C(c3nccs3)N2C1)S(C)(=O)=O` [Example 129], the EC50 is more than 400 nM.

As for `CC(C)(O)[C@H]1CCCN1S(=O)(=O)N[C@H]1CC2=C(c3ccn(C(F)F)n3)[C@H](c3ccc(F)cc3Cl)N=C(c3nccs3)N2C1` [Example 284], the EC50 is less than 100 nM.

For `O=C(N[C@H]1CC2=C(c3ccn(C(F)F)n3)[C@H](c3ccc(F)cc3Cl)N=C(c3nccs3)N2C1)OC1CCCC1` [Example 252], the EC50 was more than 400 nM.

As to `CC(O)[C@]1(F)CC2=C(c3ccn(C(F)F)n3)[C@H](c3ccc(F)cc3Cl)N=C(c3nccs3)N2C1` (some centres unmarked) [Example 176], the EC50 was less than 100 nM.

Consider `O=S(=O)(N[C@H]1CC2=C(c3ccn(C(F)F)n3)[C@H](c3ccc(F)cc3Cl)N=C(c3nccs3)N2C1)N1CC[C@H](F)C1` [Example 272], for which the concentration for a half-maximal effect (EC50) was less than 100 nM.

With `COC(=O)c1ccc(CS(=O)(=O)N[C@H]2CC3=C(c4ccn(C(F)F)n4)[C@H](c4ccc(F)cc4Cl)N=C(c4nccs4)N3C2)cc1` [Example 34], the EC50 was less than 100 nM.

As to `N#CC[C@@]1(F)CC2=C(c3ccn(C(F)F)n3)[C@H](c3ccc(F)cc3Cl)N=C(c3nccs3)N2C1` [Example 194], the EC50 was 100 to 400 nM.

With `O/N=C/[C@@]1(F)CC2=C(c3ccn(C(F)F)n3)[C@H](c3ccc(F)cc3Cl)N=C(c3nccs3)N2C1` [Example 180], the EC50 was more than 400 nM.

For the compound `O=C(N[C@H]1CC2=C(c3ccn(C(F)F)n3)[C@H](c3ccc(F)cc3Cl)N=C(c3nccs3)N2C1)c1ncc[nH]1` [Example 234], the EC50 was less than 100 nM.

Consider `O=C(N[C@H]1CC2=C(c3ccn(C(F)F)n3)[C@H](c3ccc(F)cc3Cl)N=C(c3nccs3)N2C1)OC1CCCCC1` [Example 251], for which the concentration giving a half-maximal response (EC50) is less than 100 nM.

In the case of `O=S(=O)(Nc1ccccn1)N[C@H]1CC2=C(c3ccn(C(F)F)n3)[C@H](c3ccc(F)cc3Cl)N=C(c3nccs3)N2C1` [Example 320], the EC50 was in the range of 100 to 400 nM.

Take `COC(=O)NC[C@]1(F)CC2=C(c3ccn(C(F)F)n3)[C@H](c3ccc(F)cc3Cl)N=C(c3nccs3)N2C1` [Example 185]: the EC50 fell in the range of 100 to 400 nM.

With `COC(=O)NC[C@@]1(F)CC2=C(c3ccn(C(F)F)n3)[C@H](c3ccc(F)cc3Cl)N=C(c3nccs3)N2C1` [Example 186], the EC50 is 100 to 400 nM.

As to `O=S(=O)(C[C@@H]1CC2=C(c3ccn(C(F)F)n3)[C@H](c3ccc(F)cc3Cl)N=C(c3nccs3)N2C1)N1CCCCC1` [Example 298], the half-maximal effective concentration (EC50) was in the range of 100 to 400 nM.

As to `O=C(O)C1CCCN(CCS(=O)(=O)N[C@H]2CC3=C(c4ccn(C(F)F)n4)[C@H](c4ccc(F)cc4Cl)N=C(c4nccs4)N3C2)C1` (some centres unmarked) [Example 68], the EC50 was more than 400 nM.

As to `OC1(Cc2nnn[nH]2)CC2=C(c3ccn(C(F)F)n3)[C@H](c3ccc(F)cc3Cl)N=C(c3nccs3)N2C1` (some centres unmarked) [Example 141], the EC50 is more than 400 nM.

The EC50 is the concentration that produces a half-maximal response.
